Consider one substance from US8586369B2, “Ion channel-forming peptides” (The Regents of the University of California, priority 2007, dated 2013).

The subject of series [1] is alkaline phosphatase (AP). Nature of the series: Enzymatic hydrolysis of gA phosphate in the presence of AP monitored by single ion channel recordings. The class given is biochemical. How it is done: To detect a change in single ion channel currents, gA phosphate was added to a final concentration of about 200 pM to both compartments of a planar lipid bilayer platform (FIG. 15) containing a recording electrolyte. AP was added to a final concentration of about 600 nM and the enzymatic conversion of gA phosphate to its hydrolysis product over time was monitored. We estimated the time-dependent conversion of gA phosphate to its hydrolysis product by comparing the fraction of events from gA phosphate to the fraction of events from its hydrolysis product throughout the course of the reaction. […]
Procedure for monitoring the enzymatic hydrolysis of 6 in the presence of AP using single ion channel recordings: For in situ measurements, about 19 μL (from a 100 ng mL-l solution in ethanol) of gA phosphate (to afford a final concentration of 200 pM of 6) was added to each compartment of a bilayer setup containing recording electrolyte. […] Ion channel events were recorded continuously over the course of the reaction. […] Single ion channel events were recorded during a 10 min time window once a day (50-250 events) over the course of 4 days by filling both compartments of the bilayer setup with 4 mL of the solutions with the desired AP concentration. […]

A short description of series [2]: Single channel conductance of gA phosphate and its hydrolysis product in planar lipid bilayers (Example 3). The class given is biochemical. The settings on record: for single channel conductance (γ): 50 mM CsCl, 1 mM MgCl2, 0.5 mM K2CO3, pH 9.8, slopes of I-V curves. How it is done:
Formation of Planar Lipid Bilayers: Planar lipid bilayers were formed by the “folding technique” as previously described. The recording electrolyte was 1 mM MgCl2, 50 mM CsCl buffered with 0.5 mM K2CO3 at pH 9.8. Briefly, we spread a solution containing 25 mg mL^−1 1,2-diphytanoyl-sn-glycero-3-phosphatidylcholine (DiPhyPC) lipids in pentane at the air-water interface of the electrolyte solution in both compartments of the bilayer setup. 3 mL of the total volume of 4 mL of electrolyte solution in each bilayer compartment was aspirated into a syringe, followed by dispensing the electrolyte solution back into each compartment.
Ion Channel Measurements: We performed single channel recordings in “voltage clamp mode” using Ag/AgCl pellet electrodes (Warner Instruments) in each compartment of the bilayer setup. Data acquisition and storage was carried out using custom software in combination with an EPC-7 patch clamp amplifier from Heka (set at a gain of 10 mV pA-1 and a filter cutoff frequency of 3 kHz). The data acquisition board (National Instruments, Austin, Tx) for the amplifier was set to a sampling frequency of 15 kHz. The current traces shown in the FIG. 2 were further filtered using a digital Gaussian low-pass filter with a cutoff frequency of 4 Hz.
Analysis of the single channel current traces was performed by computing histograms of the currents from the original current versus time traces with ClampFit 9.2 software from Axon Instruments. From these histograms we extracted the main current values by fitting a Gaussian function to the peaks in the histograms. All conductance values were obtained from the slopes of I-V curves.

“gramicidine A (gA) phosphate [gA phosphate]”: in series [1] (200 pM gA phosphate, 600 nM AP, in situ), the “time after which almost all recorded ion channel events originated from the hydrolysis product” value worked out at 35 min. For the same substance, the “hydrolysis in the absence of AP” value in series [1] (ion channel experiments over the course of 1 h, pH 9.8 recording electrolyte) is reported as “No hydrolysis was observed”. In addition, the “single channel conductance (γ)” value was “≈ 16 pS” in series [2]; 16.4±0.3 pS and ≈ 16 pS in series [2] (listed as 6); 16.4±0.3 pS in series [2] (listed as phosphorylated derivative). For the same substance, the “factor by which conductance is larger than that of the gA phosphate hydrolysis product” value in series [2] (125 mV, buffered recording electrolyte) is given as 4.
